The nature of series [1]: UV-visible absorption spectrum. Type of series: physicochemical. The note with it: pH 7.4 0.1 M phosphate buffer, 0.1% DMF. The method, then:
Compound 10 obtained in Example 4 was dissolved in pH 7.4 0.1 M phosphate buffer containing 0.1% DMF as cosolvent to form a 10 μM solution.
Compound 12 obtained in Example 5 was dissolved in pH 7.4 0.1 M phosphate buffer containing 0.1% DMF as cosolvent to form a 1 μM solution.
Compound 14 obtained in Example 6 was dissolved in pH 7.4 0.1 M phosphate buffer containing 0.1% DMF as cosolvent to form a 1 μM solution.
Compound 30 obtained in Example 7 was dissolved in pH 7.4 0.1 M phosphate buffer containing 0.1% DMF as cosolvent to form a 10 μM solution. The absorption spectrum of the 10 μM solution of Compound 30 was measured.

A short description of series [2]: Comparison of specificity with different ROS and RNS. The note with it: for fluorescence enhancement by peroxynitrite compared with any other ROS and RNS: 25° C. The method, then:
The reactivity of Compound 10 was compared toward different reactive oxygen species (ROS) and reactive nitrogen species (RNS), including OCl^−, H2O2, ^1O2, NO, O2^•−, ^•OH, ONOO^− and alkylperoxyl radical (ROO^•). Different reactive oxygen species and reactive nitrogen species were added independently to 5 mL of the solution of Compound 10 (10 μM in 0.1 M potassium phosphate buffer). The changes of fluorescence intensity before and after the treatment were measured. The reactive oxygen species and reactive nitrogen species were prepared as follows. • a. H2O2 (final 100 μM) was added and then stirred for 1 hour at 25° C. • b. (3-(1,4-Dihydro-1,4-epidioxy-1-naphthyl)propionic acid) (final 100 μM) was added and then stirred at 25° C. for 1 hour. • c. 2,2′-Azobis(2-amidinopropane)dihydrochloride (final 100 μM) was added and then stirred at 25° C. for 1 hour. • d. SNP (Sodium Nitroferricyanide (III) Dihydrate) (final 100 μM) was added and then stirred for 1 hour at 25° C. • e. O2^•− was generated by xanthine and xanthine oxidase. Xanthine oxidase was added firstly. After xanthine oxidase was dissolved, xanthine (final 100 μM) was added and the mixtures were stirred at 25° C. for 1 hour. • f. Ferrous chloride (final 10 μM) was added in the presence of 10 equivalences of H2O2 (100 μM). • g. ONOO^− (final 10 μM) was added at 25° C. • h. NaOCl (final 10 μM) was added at 25° C. Commercial bleach was the source of NaOCl.
The reactivity of Compound 12 was compared toward different reactive oxygen species (ROS) and reactive nitrogen species (RNS), including OCl^−, H2O2, ^1O2, NO, O2^•−, ^•OH, ONOO^− and alkylperoxyl radical (ROO^•). Different reactive oxygen species and reactive nitrogen species were added independently to 5 mL of the solution of Compound 12 (1 μM in 0.1 M potassium phosphate buffer). The changes of fluorescence intensity before and after the treatment were measured. The reactive oxygen species and reactive nitrogen species were prepared as follows: • i. H2O2 (final 100 μM) was added and then stirred for 1 hour at 25° C. • j. (3-(1,4-Dihydro-1,4-epidioxy-1-naphthyl)propionic acid) (final 100 μM) was added and then stirred at 25° C. for 1 hour. • k. 2,2′-Azobis(2-amidinopropane)dihydrochloride (final 100 μM) was added and then stirred at 25° C. for 1 hour. • l. SNP (Sodium Nitroferricyanide (III) Dihydrate) (final 100 μM) was added and then stirred for 1 hour at 25° C. • m. O2^•− was generated by xanthine and xanthine oxidase. Xanthine oxidase was added firstly. After xanthine oxidase was dissolved, xanthine (final 100 μM) was added and the mixtures were stirred at 25° C. for 1 hour. • n. Ferrous chloride (final 10 μM) was added in the presence of 10 equivalences of H2O2 (100 μM). • o. ONOO^− (final 10 μM) was added at 25° C. • p. NaOCl (final 10 μM) was added at 25° C. Commercial bleach was the source of NaOCl.
The reactivity of Compound 14 was compared toward different reactive oxygen species (ROS) and reactive nitrogen species (RNS), including OCl^−, H2O2, ^1O2, NO, O2^•−, ^•OH, ONOO^− and alkylperoxyl radical (ROO^•). Different reactive oxygen species and reactive nitrogen species were added independently to 5 mL of the corresponding solution of Compound 14 (1 μM in 0.1 M potassium phosphate buffer). The changes in fluorescence intensity before and after the treatment were measured. The reactive oxygen species and reactive nitrogen species were prepared as follows: • a. H2O2 (final 100 μM) was added and then stirred for 1 hour at 25° C. • b. (3-(1,4-Dihydro-1,4-epidioxy-1-naphthyl)propionic acid) (final 100 μM) was added and then stirred at 25° C. for 1 hour. • c. 2,2′-Azobis(2-amidinopropane)dihydrochloride (final 100 μM) was added and then stirred at 25° C. for 1 hour. • d. SNP (Sodium Nitroferricyanide (III) Dihydrate) (final 100 μM) was added and then stirred for 1 hour at 25° C. • e. O2^•− was generated by xanthine and xanthine oxidase. Xanthine oxidase was added firstly. […]

[3] abbreviates: 10 μM probe in 0.1 M potassium phosphate buffer.
Where [4] appears, read: 1 μM probe in 0.1 M potassium phosphate buffer.

SMILES strings stand for the structures.

Take `CN(c1ccc(CCC(=O)C(F)(F)F)cc1)c1cc2c(cc1Cl)C1(OC(=O)c3ccccc31)c1cc(Cl)c(O)cc1O2` (stereo not drawn) [Compound 10]: in series [1] (10 μM solution), the absorption maximum result is given as “about 520 nm”. In addition, in series [2] (setting [3]), the “reactivity among ROS and RNS in an abiotic system” value was “much higher reactivity towards peroxynitrite”; the “fluorescence enhancement by peroxynitrite compared with any other ROS and RNS” value is on record as “much stronger fluorescence enhancement”.
For the compound `CN(c1ccc(O)cc1)c1ccc2c(c1)Oc1cc(O)ccc1C21OC(=O)c2ccccc21` (stereo not drawn) [Compound 12], the absorption maximum result in series [1] (1 μM solution) is listed as “about 515 nm”. In addition, in series [2] (setting [4]), the “reactivity among ROS and RNS in an abiotic system” value is “much higher reactivity towards peroxynitrite”; the “fluorescence enhancement by peroxynitrite compared with any other ROS and RNS” value is on record as “much stronger fluorescence enhancement”.
